Measurements as given in PubChem BioAssay (NCI).
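48-hour exposure; five concentrations; linearly interpolated endpoints. TGI denotes the concentration required for complete inhibition of growth.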

What was measured:
Assay in all cases: DTP human tumour cell line panel, 48 h
HOP-62 NSCLC = test system: HOP-62 NSCLC
SK-MEL-28 melanoma = test system: SK-MEL-28 melanoma
SK-MEL-2 melanoma = test system: SK-MEL-2 melanoma
SF-295 CNS = test system: SF-295 CNS
UO-31 renal = test system: UO-31 renal
SK-OV-3 ovarian = test system: SK-OV-3 ovarian
786-0 renal = test system: 786-0 renal
SNB-19 CNS = test system: SNB-19 CNS
SNB-75 CNS = test system: SNB-75 CNS
HCT-116 colon = test system: HCT-116 colon
A549 NSCLC = test system: A549 NSCLC
SK-MEL-5 melanoma = test system: SK-MEL-5 melanoma
CAKI-1 renal = test system: CAKI-1 renal
KM12 colon = test system: KM12 colon
OVCAR-4 ovarian = test system: OVCAR-4 ovarian
DU-145 prostate = test system: DU-145 prostate
NCI/ADR-RES ovarian = test system: NCI/ADR-RES ovarian
MDA-MB-231 breast = test system: MDA-MB-231 breast

Row | SMILES | TGI (HOP-62 NSCLC) [µM] | TGI (SK-MEL-28 melanoma) [µM] | TGI (SK-MEL-2 melanoma) [µM] | TGI (SF-295 CNS) [µM] | TGI (UO-31 renal) [µM] | TGI (SK-OV-3 ovarian) [µM] | TGI (786-0 renal) [µM] | TGI (SNB-19 CNS) [µM] | TGI (SNB-75 CNS) [µM] | TGI (HCT-116 colon) [µM] | TGI (A549 NSCLC) [µM] | TGI (SK-MEL-5 melanoma) [µM] | TGI (CAKI-1 renal) [µM] | TGI (KM12 colon) [µM] | TGI (OVCAR-4 ovarian) [µM] | TGI (DU-145 prostate) [µM] | TGI (NCI/ADR-RES ovarian) [µM] | TGI (MDA-MB-231 breast) [µM]
1 | Clc1ccc(Nc2nc3ccccc3nc2-c2cccs2)cc1Cl | > 100 | > 100 | > 100 | > 100 | > 100 | > 100 | > 100 | > 100 | > 100 | > 100 | > 100 | – | – | – | – | – | – | –
2 | C/C=C1\CN2CCc3c([nH]c4ccccc34)C2CC1C(=O)OC (stereo not given) | > 322 | > 322 | > 322 | > 322 | – | > 322 | > 322 | > 322 | – | > 322 | > 322 | > 322 | > 322 | > 322 | – | – | – | –
3 | COc1cccc(OC)c1C(=O)OCc1ccccc1 | > 100 | > 100 | > 100 | > 100 | – | > 100 | > 100 | – | > 100 | > 100 | > 100 | > 100 | > 100 | > 100 | > 100 | – | – | –
4 | CC1(C)OC(=O)C(C#N)=C1/C=C/c1coc2ccc(Cl)cc2c1=O | 79.3 | > 100 | 50.9 | > 100 | 83.6 | 69.7 | > 100 | > 100 | 53.5 | > 100 | > 100 | 53.5 | 57.5 | > 100 | 55 | – | – | –
5 | CC(=O)CN(Cc1cc(C)c2c(c1)c1ccccc1n2Cc1ccccc1)S(=O)(=O)c1ccc(C)cc1 | > 100 | > 100 | > 100 | > 100 | > 100 | > 100 | > 100 | > 100 | > 100 | > 100 | > 100 | > 100 | > 100 | > 100 | > 100 | – | – | –
6 | CN(C)c1ccc(NN=C2SC(=Nc3ccccc3)C(=Nc3ccccc3)S2)cc1 | > 100 | > 100 | > 100 | > 100 | > 100 | > 100 | > 100 | > 100 | > 100 | > 100 | > 100 | > 100 | > 100 | > 100 | > 100 | > 100 | > 100 | –
7 | C[N+](C)(C)CCc1ccccc1 | > 100 | > 100 | > 100 | > 100 | > 100 | > 100 | > 100 | > 100 | > 100 | > 100 | > 100 | > 100 | > 100 | > 100 | > 100 | – | – | –
8 | CCCP1(=O)C=C(C)C(=C(Cl)Cl)C(C)=C1 (stereo not given) | > 100 | > 100 | 41 | > 100 | > 100 | – | > 100 | – | – | > 100 | > 100 | 49.1 | – | 67.9 | > 100 | – | – | –
9 | COC(=O)c1onc(-c2c(OC)cc(OC)cc2OC)c1C(=O)OC | > 100 | > 100 | > 100 | > 100 | > 100 | > 100 | > 100 | > 100 | > 100 | > 100 | > 100 | > 100 | > 100 | > 100 | > 100 | – | – | –
10 | CCOC(=O)C1C(c2ccc3c(c2)OCO3)c2c([nH][nH]c2=O)CC1(C)O (stereo not given) | > 100 | > 100 | > 100 | > 100 | > 100 | – | > 100 | > 100 | > 100 | > 100 | > 100 | > 100 | > 100 | > 100 | > 100 | > 100 | > 100 | > 100
11 | c1ccc2c(c1)C1CCCCCC21N1CCOCC1 (stereo not given) | > 100 | > 100 | > 100 | > 100 | > 100 | > 100 | > 100 | > 100 | > 100 | > 100 | > 100 | > 100 | > 100 | > 100 | > 100 | – | – | –
12 | O=C(O)c1ccc(C2COc3ccc(Cl)cc3C2)cc1 (stereo not given) | > 100 | > 100 | > 100 | > 100 | > 100 | > 100 | > 100 | > 100 | > 100 | > 100 | > 100 | > 100 | > 100 | > 100 | – | – | – | –
